Experimental data as given in US20250051277A1, “DELIVERY OF THERAPEUTIC ALKALOID COMPOUNDS” (Sensorium Therapeutics, Inc., priority 2021, published 2025).
Read-outs that look alike come from different tables or passages of the source.

Experiments:
[1] = Hydrolysis Assay of Example A1 (conversion by LCMS); format: physicochemical; conditions: pH = 2.0, 25° C., 0.5 mM, 0.01M HCl; 0-48 h
Procedure: The hydrolysis kinetics was under a certain temperature and measured by LCMS at a certain time interval. The corresponding LCMS chromatograms were recorded and the conversions were calculated. The hydrolysis conditions and the data were summarized in below table. LCMS spectra were obtained using Agilent 1200/G1956A or SHIMADZU LCMS-2020. Standard LCMS conditions were as follows (running time 1.55 minutes): • Acidic condition: Mobile Phase A: 0.0375% TFA in water (v/v). Mobile Phase B: 0.01875% TFA in acetonitrile (v/v); Column: Kinetex EVO C18 30*2.1 mm, 5 μm. • Basic condition: Mobile Phase A: 0.025% NH3·H2O in water (v/v). Mobile Phase B: Acetonitrile; Column: Kinetex EVO C18 2.1×30 mm, 5 μm. • Conversion (%)=peak area 1/(peak area 1+peak area 2)*100%, peak area 1 is the integration of hydrolyzed product, peak area 2 is the integration of starting material.

[2] = Plasma Stability Assay of Example A4, human plasma; conditions: 37° C., 10 μM
Procedure: (§1) 50 μL aliquots of positive controls and test compounds spiked into rat or human plasma (n=2) were added to a pre-warmed plate (37° C.) and shaken at 50 rpm. At each respective time point, the reaction was stopped by adding 500 μL of acetonitrile containing internal standards (100 nM aprozolam, 200 nM caffeine, 100 nM tolbutamide). All samples were vortexed for 10 minutes, followed by centrifugation at 3,220 g for 30 minutes to precipitate proteins. 100 μL of the supernatant is transferred to a new plate. The supernatant will be diluted with ultrapure water according to the LC-MS signal response and peak shape.

[3] = format: physicochemical; conditions: DI water, 25° C., 0.5 mM
[4] = Plasma Stability Assay of Example A4, rat plasma; conditions: 37° C., 10 μM
Procedure: as §1

[5] = format: physicochemical; conditions: SGF with pepsin, pH 1.5, 37° C., 0.5 mM
SERT = SERT (Homo sapiens (Human), UniProt P31645); format: cell-based; conditions: stable 5HTT cells, 30 minutes at 37° C.
[6] = Pharmacokinetics of 043 and 001 in mice after oral 043 (75 mg/kg); format: in vivo, male C57BL/6 mice
Procedure: Total twelve male mice were used in this study. […] The formulation vehicle used was normal saline.
The plasma and brain concentration-time data of 043 and 001 was used for the pharmacokinetic analysis.
The extraction procedure for plasma/brain samples and the spiked plasma/brain calibration standards were identical:
A 25 μL of study sample plasma/brain (dilution applied to some samples) or spiked plasma calibration standard was added to individual pre-labeled micro-centrifuge tubes followed by 100 μL of internal standard prepared in acetonitrile (Glipizide-500 ng/mL) was added except for blank, where 100 μL of acetonitrile was added. Samples were vortexed for 5 minutes. Samples were centrifuged for 10 minutes at a speed of 4000 rpm at 4° C. Following centrifugation, 100 μL of clear supernatant was transferred in 96 well plates and analyzed using LC-MS/MS.

[7] = in vivo; for Plasma levels of 001: mouse, iv, 2 mg/kg
Procedure: Male C57/BL6 mice were used to evaluate each compound, with n=3 mice/time point.
Animals were administered through intravenous route with solution formulation at 2 mg/kg dose. […] Following blood collection, immediately, animals were sacrificed, and vena-cava was cut open and blood was drained. […] Brain samples were collected from set of three mice at each time point. […] Brain samples were homogenized using 2 volumes of ice-cold PBS (pH-7.4) of brain weight. […] Concentrations of compound (or compound and metabolite) in mouse plasma and brain samples were determined by fit for purpose LC-MS/MS method.

[8] = 5 μM
[9] = 5 μM; remark: listed apart in the source
[10] = analyte = label, single oral administration of 043, 75 mg/kg, male C57BL/6 mice
[11] = brain, analyte = label, single oral administration of 043, 75 mg/kg, male C57BL/6 mice
[12] = plasma, analyte = label, single oral administration of 043, 75 mg/kg, male C57BL/6 mice

COc1ccc([C@@]23CCC(OC(C)=O)=C[C@@H]2N(C)CC3)cc1OC [Compound 026, [(3aS,7aS)-3a-(3,4-dimethoxyphenyl)-1-methyl-3,4,5,7a-tetrahydro-2H-indol-6-yl]acetate]
Conversion (%) [1]: 0% | Notes (hydrolysis) [1]: Stable; | Compound 001 (%) (metabolite mesembrine), Human Plasma ([2]; time 0.0 min): >99% | Prodrug (%) remaining, Human Plasma ([2]; time 0.0 min): 100.0% | Compound 001 (%) (metabolite mesembrine), Human Plasma ([2]; time 10 min): >99% | Prodrug (%) remaining, Human Plasma ([2]; time 10 min): 40.3% | Compound 001 (%) (metabolite mesembrine), Human Plasma ([2]; time 30 min): >99% | Prodrug (%) remaining, Human Plasma ([2]; time 30 min): 23.5% | Compound 001 (%) (metabolite mesembrine), Human Plasma ([2]; time 60 min): >99% | Prodrug (%) remaining, Human Plasma ([2]; time 60 min): 12.0% | Compound 001 (%) (metabolite mesembrine), Human Plasma ([2]; time 120 min): >99% | Prodrug (%) remaining, Human Plasma ([2]; time 120 min): 3.4% | Compound 001 (%) (metabolite mesembrine), Human Plasma ([2]; time 240 min): >99% | Prodrug (%) remaining, Human Plasma ([2]; time 240 min): 0.8% | Condition 2 Conversion (%) ([3]; time 1 min): 0% | Condition 2 Conversion (%) ([3]; time 5 min): 0% | Condition 2 Conversion (%) ([3]; time 30 min): 0% | Condition 2 Conversion (%) ([3]; time 1 h): 0% | Condition 2 Conversion (%) ([3]; time 4 h): 0% | Condition 2 Conversion (%) ([3]; time 24 h): 0% | Compound 001 (%) (metabolite mesembrine), Rat Plasma ([4]; time 0.0 min): 96.2% | Prodrug (%) remaining, Rat Plasma ([4]; time 0.0 min): 100.0% | Compound 001 (%) (metabolite mesembrine), Rat Plasma ([4]; time 10 min): >99% | Prodrug (%) remaining, Rat Plasma ([4]; time 10 min): 0.0% | Compound 001 (%) (metabolite mesembrine), Rat Plasma ([4]; time 30 min): >99% | Prodrug (%) remaining, Rat Plasma ([4]; time 30 min): 0.0% | Compound 001 (%) (metabolite mesembrine), Rat Plasma ([4]; time 60 min): >99% | Prodrug (%) remaining, Rat Plasma ([4]; time 60 min): 0.0% | Compound 001 (%) (metabolite mesembrine), Rat Plasma ([4]; time 120 min): >99% | Prodrug (%) remaining, Rat Plasma ([4]; time 120 min): 0.0% | Compound 001 (%) (metabolite mesembrine), Rat Plasma ([4]; time 240 min): >99% | Prodrug (%) remaining, Rat Plasma ([4]; time 240 min): 0.0% | Condition 1 Conversion (%) ([5]; time 1 min): 0% | Condition 1 Conversion (%) ([5]; time 5 min): 0% | Condition 1 Conversion (%) ([5]; time 30 min): 0% | Condition 1 Conversion (%) ([5]; time 1 h): 0% | Condition 1 Conversion (%) ([5]; time 4 h): 0% | Condition 1 Conversion (%) ([5]; time 24 h): 0%

CO/N=C1/CC[C@@]2(c3ccc(OC)c(OC)c3)CCN(C)[C@H]2C1 [Compound 035, (Z, 3aS,7aS)-3a-(3,4-dimethoxyphenyl)-N-methoxy-1-methyl-2,3,4,5,7,7a-hexahydroindol-6-imine]
IC50 (SERT): < 50 nM | Condition 1 Conversion (%) ([5]; time 1 min): 0% | Condition 1 Conversion (%) ([5]; time 5 min): 0% | Condition 1 Conversion (%) ([5]; time 30 min): 5.4% | Condition 1 Conversion (%) ([5]; time 1 h): 13.1% | Condition 1 Conversion (%) ([5]; time 4 h): 35.2% | Condition 1 Conversion (%) ([5]; time 24 h): 38.9%

CO/N=C1\CC[C@@]2(c3ccc(OC)c(OC)c3)CCN(C)[C@H]2C1 [Compound 038, (E,3aS,7aS)-3a-(3,4-dimethoxyphenyl)-N-methoxy-1-methyl-2,3,4,5,7,7a-hexahydroindol-6-imine]
IC50 (SERT): < 50 nM | Condition 1 Conversion (%) ([5]; time 1 min): 0% | Condition 1 Conversion (%) ([5]; time 5 min): 0% | Condition 1 Conversion (%) ([5]; time 30 min): 1.3% | Condition 1 Conversion (%) ([5]; time 1 h): 11.9% | Condition 1 Conversion (%) ([5]; time 4 h): 31.3% | Condition 1 Conversion (%) ([5]; time 24 h): 49.9%

COc1ccc([C@]23CCN(C)[C@H]2CC2(CC3)OCCO2)cc1OC [Compound 043]
IC50 (SERT): < 50 nM | conversion of prodrug to 001 in vivo ([6]; 75 mg/kg po in mice): efficiently converts to 001 in vivo | Brain concentrations quantifiable up to [6, 10]: 4 h | brain exposure-Kp [6, 10]: < 1 | AUClast [6, 11]: 1787.23 ng·h/mL | Cmax [6, 11]: 2684.81 ng/mL | Tmax [6, 11]: 30 min | AUClast [6, 12]: 2555.07 ng·h/mL | Cmax [6, 12]: 3392.53 ng/mL | Tmax [6, 12]: 30 min | Condition 1 Conversion (%) ([5]; time 1 min): 0% | Condition 1 Conversion (%) ([5]; time 5 min): 0% | Condition 1 Conversion (%) ([5]; time 30 min): 0% | Condition 1 Conversion (%) ([5]; time 1 h): 0% | Condition 1 Conversion (%) ([5]; time 4 h): 0% | Condition 1 Conversion (%) ([5]; time 24 h): 0%

COc1ccc(C23CCN(C)C2CC2(CC3)OCCO2)cc1OC (centres unmarked) [Compound 044]
IC50 (SERT): > 1000 nM | Condition 1 Conversion (%) ([5]; time 1 min): 0% | Condition 1 Conversion (%) ([5]; time 5 min): 0% | Condition 1 Conversion (%) ([5]; time 30 min): 0% | Condition 1 Conversion (%) ([5]; time 1 h): 0% | Condition 1 Conversion (%) ([5]; time 4 h): 0% | Condition 1 Conversion (%) ([5]; time 24 h): 0%

COc1ccc([C@]23CCN(C)[C@H]2CC2(CC3)SCCS2)cc1OC [Compound 045, (3′aS,7′aS)-3′a-(3,4-dimethoxyphenyl)-1′-methyl-spiro[1,3-dithiolane-2,6′-2,3,4,5,7,7a-hexahydroindole]]
IC50 (SERT): > 1000 nM | Condition 1 Conversion (%) ([5]; time 1 min): 0% | Condition 1 Conversion (%) ([5]; time 5 min): 0% | Condition 1 Conversion (%) ([5]; time 30 min): 0% | Condition 1 Conversion (%) ([5]; time 1 h): 0% | Condition 1 Conversion (%) ([5]; time 4 h): 0% | Condition 1 Conversion (%) ([5]; time 24 h): 0%

COc1ccc([C@@]23CCN(C)[C@@H]2CC2(CC3)SCCS2)cc1OC [Compound 046, (3′aR,7′aR)-3′a-(3,4-dimethoxyphenyl)-1′-methyl-spiro[1,3-dithiolane-2,6′-2,3,4,5,7,7a-hexahydroindole]]
IC50 (SERT): 100 to 500 nM | Condition 1 Conversion (%) ([5]; time 1 min): 0% | Condition 1 Conversion (%) ([5]; time 5 min): 0% | Condition 1 Conversion (%) ([5]; time 30 min): 0% | Condition 1 Conversion (%) ([5]; time 1 h): 0% | Condition 1 Conversion (%) ([5]; time 4 h): 0% | Condition 1 Conversion (%) ([5]; time 24 h): 0%

CCC(=O)OC1=C[C@@H]2N(C)CC[C@]2(c2ccc(OC)c(OC)c2)CC1 [Compound 317, [(3aS,7aS)-3a-(3,4-dimethoxyphenyl)-1-methyl-3,4,5,7a-tetrahydro-2H-indol-6-yl]propanoate]
quantifiable levels of 001 in plasma up to ([7]; male, C57BL/6, mouse): 60 min | Plasma levels of 001 [7]: not detectable | Condition 2 Conversion (%) ([3]; time 1 min): 0% | Condition 2 Conversion (%) ([3]; time 5 min): 0% | Condition 2 Conversion (%) ([3]; time 30 min): 0% | Condition 2 Conversion (%) ([3]; time 1 h): 0% | Condition 2 Conversion (%) ([3]; time 4 h): 0% | Condition 2 Conversion (%) ([3]; time 24 h): 0% | Condition 1 Conversion (%) ([5]; time 1 min): 0% | Condition 1 Conversion (%) ([5]; time 5 min): 0% | Condition 1 Conversion (%) ([5]; time 30 min): 0% | Condition 1 Conversion (%) ([5]; time 1 h): 0% | Condition 1 Conversion (%) ([5]; time 4 h): 0% | Condition 1 Conversion (%) ([5]; time 24 h): 0%

COc1ccc([C@@]23CCC(OC(=O)CC(C)C)=C[C@@H]2N(C)CC3)cc1OC [Compound 334, [(3aS,7aS)-3a-(3,4-dimethoxyphenyl)-1-methyl-3,4,5,7a-tetrahydro-2H-indol-6-yl]3-methylbutanoate]
Human Plasma Compound 001 (%) ([8]; 15 min): 63.6% | Human Plasma Compound 001 (%) ([8]; 30 min): 63.7% | Human Plasma Compound 001 (%) ([8]; 60 min): 65.4% | Human Plasma Compound 001 (%) ([8]; 120 min): 65.1% | Human Plasma Compound 001 (%) ([8]; 240 min): 63.8% | quantifiable levels of 001 in brain up to ([7]; male, C57BL/6, mouse): 2 h | quantifiable levels of 001 in plasma up to ([7]; male, C57BL/6, mouse): 60 min | Plasma levels of 001 [7]: not detectable | Condition 2 Conversion (%) ([3]; time 1 min): 0% | Condition 2 Conversion (%) ([3]; time 5 min): 0% | Condition 2 Conversion (%) ([3]; time 30 min): 0% | Condition 2 Conversion (%) ([3]; time 1 h): 0% | Condition 2 Conversion (%) ([3]; time 4 h): 0% | Condition 2 Conversion (%) ([3]; time 24 h): 0% | Mouse Plasma Compound 001 (%) ([9]; 15 min): 73.1% | Mouse Plasma Compound 001 (%) ([9]; 30 min): 70.9% | Mouse Plasma Compound 001 (%) ([9]; 60 min): 68.8% | Mouse Plasma Compound 001 (%) ([9]; 120 min): 70.0% | Mouse Plasma Compound 001 (%) ([9]; 240 min): 68.5% | Condition 1 Conversion (%) ([5]; time 1 min): 0% | Condition 1 Conversion (%) ([5]; time 5 min): 0% | Condition 1 Conversion (%) ([5]; time 30 min): 0% | Condition 1 Conversion (%) ([5]; time 1 h): 0% | Condition 1 Conversion (%) ([5]; time 4 h): 0% | Condition 1 Conversion (%) ([5]; time 24 h): 0%
